Data on 30 compounds can be found in US8173654B2, “Triazolopyridazine compounds” (Janssen Pharmaceutica N.V., priority 2005, dated 2012).

One test addresses T1, c-Met (Homo sapiens, UniProt P08581). Kind of test: Cell based ELISA assay for HGF stimulated c-Met phosphorylation in S114 cells. Particulars: read-out: c-Met Cell ELISA IC-50. On the set-up: expressed in transfected cells; host or cells: S114 (murine NIH 3T3 derived). The protocol: A cell based ELISA assay was developed to evaluate the ability of compounds to inhibit HGF stimulated c-Met phosphorylation in cells.
S114 cells were seeded to a 96 well tissue culture treated dish at a concentration of 5×10^4 per well. After a 16-20 hour incubation, culture medium was removed and replaced with serum free medium supplemented with 0.5% BSA. Test compound was then added and incubated with the cells for 60 minutes, followed by the addition of 1 μl HGF at […] for 15 minutes. […] Following another 1 hour incubation at room temperature the plates were washed three times with Delfia wash buffer (Perkin Elmer). After the final wash, […] of Delfia enhancer solution (Perkin Elmer) was added and allowed to incubate for 60 minutes. Plates were read on an LJL Analyst instrument (Molecular Devices; Sunnyvale, Calif.) with filter settings of 360 excitation, 620 emission, and 410 dichroic. IC50 values were calculated using Graphpad Prism software (Graphpad Software; San Diego, Calif.).
Target sequence in this assay (P08581 25-1390): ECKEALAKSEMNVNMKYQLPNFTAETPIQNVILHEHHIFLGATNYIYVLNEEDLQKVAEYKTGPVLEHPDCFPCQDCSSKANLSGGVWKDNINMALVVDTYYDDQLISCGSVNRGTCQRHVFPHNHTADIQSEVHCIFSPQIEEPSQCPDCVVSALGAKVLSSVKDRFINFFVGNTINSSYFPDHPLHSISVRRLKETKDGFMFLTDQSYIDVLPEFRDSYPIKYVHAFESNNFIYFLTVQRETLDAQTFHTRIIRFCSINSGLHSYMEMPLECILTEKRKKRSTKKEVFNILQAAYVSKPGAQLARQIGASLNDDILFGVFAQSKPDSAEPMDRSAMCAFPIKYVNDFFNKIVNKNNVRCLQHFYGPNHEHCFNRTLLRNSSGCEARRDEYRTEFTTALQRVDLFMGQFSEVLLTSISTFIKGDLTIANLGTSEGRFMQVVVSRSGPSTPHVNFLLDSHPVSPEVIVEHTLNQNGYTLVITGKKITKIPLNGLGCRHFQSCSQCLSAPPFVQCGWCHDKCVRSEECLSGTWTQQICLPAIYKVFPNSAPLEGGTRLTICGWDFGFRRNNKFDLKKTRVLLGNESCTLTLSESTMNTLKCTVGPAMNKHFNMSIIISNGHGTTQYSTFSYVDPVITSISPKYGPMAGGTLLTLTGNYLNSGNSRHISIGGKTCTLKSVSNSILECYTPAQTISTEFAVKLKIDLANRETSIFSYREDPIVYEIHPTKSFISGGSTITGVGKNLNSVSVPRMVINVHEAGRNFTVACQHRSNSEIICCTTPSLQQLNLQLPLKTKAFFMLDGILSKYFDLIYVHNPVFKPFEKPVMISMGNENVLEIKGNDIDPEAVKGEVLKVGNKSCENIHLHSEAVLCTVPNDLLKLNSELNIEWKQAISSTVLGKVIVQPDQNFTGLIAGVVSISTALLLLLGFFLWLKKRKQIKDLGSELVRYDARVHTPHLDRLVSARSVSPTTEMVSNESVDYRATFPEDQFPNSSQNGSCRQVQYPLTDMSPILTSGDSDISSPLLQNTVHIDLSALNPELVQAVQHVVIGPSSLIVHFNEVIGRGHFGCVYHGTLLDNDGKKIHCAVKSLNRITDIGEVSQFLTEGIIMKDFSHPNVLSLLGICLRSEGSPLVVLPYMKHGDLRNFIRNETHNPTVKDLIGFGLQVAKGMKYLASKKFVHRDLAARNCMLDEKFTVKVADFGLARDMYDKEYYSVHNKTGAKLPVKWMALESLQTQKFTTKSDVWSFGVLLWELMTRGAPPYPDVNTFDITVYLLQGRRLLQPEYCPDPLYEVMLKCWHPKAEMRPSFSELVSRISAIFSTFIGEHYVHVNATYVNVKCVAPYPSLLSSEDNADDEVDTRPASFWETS
On to `Oc1ccc(Cc2nnc3ccc(-c4cn[nH]c4)nn23)cc1` [Example 3, 4-[6-(1H-Pyrazol-4-yl)-[1,2,4]triazolo[4,3-b]pyridazin-3-ylmethyl]-phenol], for which the IC50 was 1030 nM.

Turning to `Oc1ccc(Cc2nnc3ccc(-c4ccn[nH]4)nn23)cc1` [Example 5, 4-[6-(2H-Pyrazol-3-yl)-[1,2,4]triazolo[4,3-b]pyridazin-3-ylmethyl]-phenol], the IC50 was 1930 nM.

On to `O=C(c1ccc(-c2ccc3nnc(Cc4ccc5ncccc5c4)n3n2)s1)N1CCS(=O)(=O)CC1` [Example 54, (1,1-Dioxo-1λ6thiomorpholin-4-yl)-[5-(3-quinolin-6-ylmethyl-[1,2,4]triazolo[4,3-b]pyridazin-6-yl)-thiophen-2-yl]-methanone], for which the IC50 was 6 nM.

For the compound `c1cnc2ccc(Cc3nnc4ccc(-c5ccc6[nH]ccc6c5)nn34)cc2c1` [Example 84, 6-[6-(1H-Indol-5-yl)-[1,2,4]triazolo[4,3-b]pyridazin-3-ylmethyl]-quinoline], the IC50 is 0.9 nM.

The target of another test is T1, c-Met. Kind of test: Delfia autophosphorylation kinase assay on the c-Met. It is filed as biochemical. The arrangement: The purified His6 tagged cytoplasmic domain of c-Met was diluted to a concentration of 500 ng/ml; host or cells: Sf9 insect cells (baculovirus, pFastBacHTa). The settings on record: His6 tagged cytoplasmic domain of c-Met, 1 μM ATP; read-out: cMet Delfia autophos IC-50. The protocol:
A DELFIA time resolved fluorescence assay was developed for screening of compounds that decreases the autophosphorylation thus the kinase activity of c-Met. The DELFIA assay is non-radioactive. The autophosphorylation of the c-Met is measured by an anti-phosphotyrosine antibody coupled to an Europium tag.
A major advantage of this format is that it allowed for the development of an autophosphorylation assay using Ni-chelate plates which bind the hexa-his tag on the recombinant Met kinase. The autophosphorylation assay allows one to use a known substrate, Met kinase itself, for the phosphorylation.
The assay procedure for screening is as follows. The purified His6 tagged cytoplasmic domain of c-Met was diluted to a concentration of 500 ng/ml in enzyme dilution buffer (50 mM Tris-HCl, pH8.0, 0.1% BSA) and dispensed to assay plates at a volume of 50 μl per well. Black opaque HisGrab Nickel coated 96 well plates (Pierce, Rockford, Ill.) were selected for use. Next, 2.5 μl of compound in 40% DMSO was added to test wells, 2.5 μl of 40% DMSO only was added to the negative control wells. The autophosphorylation reaction was initiated upon the addition of 50 μl of reaction buffer, 50 mM Tris-HCl, pH 8.0, 10 mM MgCl2, 0.1 mM Na3VO4, 1 mM DTT, 1 μM ATP. Plates were incubated at room temperature for 1 hour followed by 2 washes with 200 μl/well of PBS. Europium conjugated anti-phosphotyrosine antibody, Eu-PY20 from Perkin Elmer was diluted to 50 ng/ml in Delfia AB buffer (Perkin Elmer, Boston, Mass.), added to the 96 well assay plates at a volume of 100 μl/well, and incubated at room temperature for 2 hours. Assay plates were then washed 4 times each with 200 μl/well of Delfia wash buffer (Perkin Elmer). After the final wash 150 μl of Delfia Enhancement solution (Perkin Elmer) was added to each well of the assay plate and incubated at room temperature for 1 hour. Plates were read on an LJL Analyst instrument (Molecular Devices; Sunnyvale, Calif.) with filter settings of 360 excitation, 620 emission, and 410 dichroic. IC50 values were calculated using Graphpad Prism software (Graphpad Software; San Diego, Calif.).
Target sequence in this assay (P08581 956-1390 limits assumed): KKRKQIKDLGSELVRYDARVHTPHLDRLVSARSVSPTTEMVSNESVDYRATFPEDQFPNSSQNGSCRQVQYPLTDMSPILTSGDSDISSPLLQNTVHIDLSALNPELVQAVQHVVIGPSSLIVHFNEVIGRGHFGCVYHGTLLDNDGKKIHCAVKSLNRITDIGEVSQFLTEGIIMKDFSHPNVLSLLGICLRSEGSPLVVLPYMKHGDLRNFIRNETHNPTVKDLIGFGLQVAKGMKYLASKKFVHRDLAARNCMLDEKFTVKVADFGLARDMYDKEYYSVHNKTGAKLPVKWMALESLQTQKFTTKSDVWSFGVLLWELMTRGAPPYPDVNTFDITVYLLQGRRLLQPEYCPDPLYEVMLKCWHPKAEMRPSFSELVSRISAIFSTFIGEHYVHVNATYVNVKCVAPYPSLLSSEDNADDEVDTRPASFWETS
As for `Oc1ccc(Cc2nnc3ccc(-c4cn[nH]c4)nn23)cc1` [Example 3, 4-[6-(1H-Pyrazol-4-yl)-[1,2,4]triazolo[4,3-b]pyridazin-3-ylmethyl]-phenol], the IC50 was determined as 16 nM.

As to `Oc1ccc(Cc2nnc3ccc(-c4ccn[nH]4)nn23)cc1` [Example 5, 4-[6-(2H-Pyrazol-3-yl)-[1,2,4]triazolo[4,3-b]pyridazin-3-ylmethyl]-phenol], the IC50 came out at 15 nM.

Take `c1cc2c(cc1Cc1nnc3ccc(-c4ccc(N5CCOCC5)nc4)nn13)CCO2` [Example 8, 3-(2,3-Dihydro-benzofuran-5-ylmethyl)-6-(6-morpholin-4-yl-pyridin-3-yl)-[1,2,4]triazolo[4,3-b]pyridazine]: the IC50 was found to be 243 nM.

Take `O=C(c1cncc(-c2ccc3nnc(Cc4ccc5ncccc5c4)n3n2)c1)N1CCOCC1` [Example 10, Morpholin-4-yl-[5-(3-quinolin-6-ylmethyl-[1,2,4]triazolo[4,3-b]pyridazin-6-yl)-pyridin-3-yl]-methanone]: the IC50 amounted to 217 nM.

`c1cncc(-c2ccc3nnc(Cc4ccc5ncnn5c4)n3n2)c1` [Example 12, 6-Pyridin-3-yl-3-[1,2,4]triazolo[1,5-a]pyridin-6-ylmethyl-[1,2,4]triazolo[4,3-b]pyridazine]: the IC50 is 56 nM.

As for `Clc1cc(Cc2nnc3ccc(-c4cccnc4)nn23)ccn1` [Example 14, 3-(2-Chloro-pyridin-4-ylmethyl)-6-pyridin-3-yl-[1,2,4]triazolo[4,3-b]pyridazine], the IC50 was > 10000 nM.

Turning to `c1ccc(-c2ccc3nnc(Cc4ccc5c(c4)CCO5)n3n2)nc1` [Example 19, 3-(2,3-Dihydro-benzofuran-5-ylmethyl)-6-pyridin-2-yl-[1,2,4]triazolo[4,3-b]pyridazine], the IC50 turned out to be 172 nM.

On to `Nc1nc2ccc(Cc3nnc4ccc(-c5cccs5)nn34)cc2o1` [Example 21, 6-(6-Thiophen-2-yl-[1,2,4]triazolo[4,3-b]pyridazin-3-ylmethyl)-benzooxazol-2-ylamine], for which the IC50 stood at 23 nM.

In the case of `c1ccc(Cc2nnc3ccc(-c4cccs4)nn23)cc1` [Example 24, 3-Benzyl-6-thiophen-2-yl-[1,2,4]triazolo[4,3-b]pyridazine], the IC50 is 1780 nM.

In the case of `Fc1ccc(Cc2nnc3ccc(-c4cccs4)nn23)cc1` [Example 26, 3-(4-Fluoro-benzyl)-6-thiophen-2-yl-[1,2,4]triazolo[4,3-b]pyridazine], the IC50 came to 413 nM.

Consider `O=[N+]([O-])c1ccc(Cc2nnc3ccc(-c4cccs4)nn23)cc1` [Example 27, 3-(4-Nitro-benzyl)-6-thiophen-2-yl-[1,2,4]triazolo[4,3-b]pyridazine], for which the IC50 was determined as 8210 nM.

With `Nc1ccc(Cc2nnc3ccc(-c4cccs4)nn23)cc1` [Example 28, 4(6-Thiophen-2-yl-[1,2,4]triazolo[4,3-b]pyridazin-3-ylmethyl)-phenylamine], the IC50 was 1900 nM.

Take `CC(=O)Nc1ccc(Cc2nnc3ccc(-c4cccs4)nn23)cc1` [Example 29, N-[4(6-Thiophen-2-yl-[1,2,4]triazolo[4,3-b]pyridazin-3-ylmethyl)-phenyl]-acetamide]: the IC50 was found to be 86 nM.

Consider `CCNC(=O)Nc1ccc(Cc2nnc3ccc(-c4cccs4)nn23)cc1` [Example 30, 1-Ethyl-3-[4-(6-thiophen-2-yl-[1,2,4]triazolo[4,3-b]pyridazin-3-ylmethyl)-phenyl]-urea], for which the IC50 worked out at 570 nM.

As to `O=c1ccc(Cc2nnc3ccc(-c4cccs4)nn23)c[nH]1` [Example 32, 5-(6-Thiophen-2-yl-[1,2,4]triazolo[4,3-b]pyridazin-3-ylmethyl)-1H-pyridin-2-one], the IC50 worked out at 305 nM.

As for `[O-][n+]1ccc(Cc2nnc3ccc(-c4cccs4)nn23)cc1` [Example 34, 3-(1-Oxy-pyridin-4-ylmethyl)-6-thiophen-2-yl-[1,2,4]triazolo[4,3-b]pyridazine], the IC50 was found to be 1190 nM.

Consider `c1csc(-c2ccc3nnc(Cc4ccc5sccc5c4)n3n2)c1` [Example 36, 3-Benzo[b]thiophen-5-ylmethyl-6-thiophen-2-yl-[1,2,4]triazolo[4,3-b]pyridazine], for which the IC50 was 2700 nM.

As for `c1cc2c(cc1Cc1nnc3ccc(-c4ccc(CN5CCOCC5)o4)nn13)CCO2` [Example 40, 3-(2,3-Dihydro-benzofuran-5-ylmethyl)-6-(5-morpholin-4-ylmethyl-furan-2-yl)-[1,2,4]triazolo[4,3-b]pyridazine], the IC50 was 1080 nM.

In the case of `COc1cnccc1-c1ccc2nnc(Cc3ccc4c(c3)CCO4)n2n1` [Example 41, 3-(2,3-Dihydro-benzofuran-5-ylmethyl)-6-(3-methoxy-pyridin-4-yl)-[1,2,4]triazolo[4,3-b]pyridazine], the IC50 worked out at 56 nM.

`Oc1ccc(Cc2nnc3ccc(-n4ccnc4)nn23)cc1` [Example 45, 4-(6-Imidazol-1-yl-[1,2,4]triazolo[4,3-b]pyridazin-3-ylmethyl)-phenol]: the IC50 was 70 nM.

In the case of `Oc1ccc(Cc2nnc3ccc(-n4cccn4)nn23)cc1` [Example 46, 4-(6-Pyrazol-1-yl-[1,2,4]triazolo[4,3-b]pyridazin-3-ylmethyl)-phenol], the IC50 turned out to be 227 nM.

For `FC(F)(c1ccc2ncccc2c1)c1nnc2ccc(-c3cccs3)nn12` [Example 57, 6-[Difluoro-(6-thiophen-2-yl-[1,2,4]triazolo[4,3-b]pyridazin-3-yl)-methyl]-quinoline], the IC50 worked out at 0.3 nM.

`Cn1cc(-c2ccc3nnc(Cc4ccc5c(ccc[n+]5[O-])c4)n3n2)cn1` [Example 63, 6-[6-(1-Methyl-1H-pyrazol-4-yl)-[1,2,4]triazolo[4,3-b]pyridazin-3-ylmethyl]-quinoline 1-oxide]: the IC50 was 600 nM.

For `Clc1ccc2cc(Cc3nnc4ccc(-c5cccnc5)nn34)ccc2n1` [Example 67, 2-Chloro-6-(6-pyridin-3-yl-[1,2,4]triazolo[4,3-b]pyridazin-3-ylmethyl)-quinoline], the IC50 worked out at 900 nM.

For the compound `c1cnc2ccc(Cc3nnc4ccc(-c5ccc6nn[nH]c6c5)nn34)cc2c1` [Example 78, 6-[6-(3H-Benzotriazol-5-yl)-[1,2,4]triazolo[4,3-b]pyridazin-3-ylmethyl]-quinoline], the IC50 was found to be 320 nM.

Consider `Cc1nc2ccc(Cc3nnc4ccc(-c5cnn(C)c5)nn34)cc2s1` [Example 82, 3-(2-Methyl-benzothiazol-6-ylmethyl)-6-(1-methyl-1H-pyrazol-4-yl)-[1,2,4]triazolo[4,3-b]pyridazine], for which the IC50 is 17 nM.

`N#Cc1cncc(-c2ccc3nnc(Cc4ccc5ncccc5c4)n3n2)c1` [Example 83, 5-(3-Quinolin-6-ylmethyl-[1,2,4]triazolo[4,3-b]pyridazin-6-yl)-nicotinonitrile]: the IC50 came out at 14 nM.

Regarding `c1cncc(-c2ccc3nnc(Cc4cccc5ncccc45)n3n2)c1` [Example 91, 5-(6-Pyridin-3-yl-[1,2,4]triazolo[4,3-b]pyridazin-3-ylmethyl)-quinoline], the IC50 amounted to 1050 nM.
